From publication PMC10011554, “BET inhibitor trotabresib in heavily pretreated patients with solid tumors and diffuse large B-cell lymphomas” (Nature Communications, 2023)

Experiment: Adverse events, DLTs, MTD and RP2D in phase I study CC-90010-ST-001 (NCI CTCAE v4.03)
Format: in vivo
Protocol: The primary endpoints of the study were the safety and tolerability of trotabresib, as well as the MTD and/or RP2D of trotabresib. Safety was assessed using the National Cancer Institute Common Terminology Criteria for Adverse Events v4.03[53].
The decision to evaluate additional subjects within a dose cohort, a higher dose cohort, intermediate dose cohorts, smaller dose increments, alternate dosing schedules, or declare an MTD will also be determined by the SRC, based on their review of clinical and laboratory safety […]
7.2.4. Definition of a Subject Evaluable for DLT
After the first dose is administered in any cohort during dose escalation, subjects in each cohort […]
more than one subject per day will be enrolled in a given dose escalation cohort.
A subject evaluable for DLT is defined as one that: […]
without experiencing a DLT,
Subjects non-evaluable for DLT will be replaced. Additional subjects within any dose cohort may be enrolled at the discretion of the SRC. Intra-subject dose escalation will not be allowed during the DLT assessment period.
7.2.5. Definition of Maximum Tolerated Dose (MTD) […]
of MTD is described in Section 7.2.2.
A variable dose cohort (eg, less frequent dosing) may be evaluated to accurately determine the MTD at the discretion of the SRC.
7.2.6. Definition of Dose-Limiting Toxicity (DLT) […]
used as a guide for the grading of severity of adverse events. A DLT is defined as any of the following toxicities occurring within the DLT assessment unless the event can clearly be […]
Do se-limiting toxicities are described below:
• Hyperglycemia meeting any of the following criteria:
− Grade 3 or greater fasting hyperglycemia (> 250 mg/dL) lasting > 4 days despite optimal medical treatment
(1 picture or pasted object on this page, not shown here)
− Hyperglycemia associated with diabetic ketoacidosis or nonketotic hyperosmolar coma regardless of glucose level
− Hyperglycemia that necessitates dose reduction despite dose interruption and resolution to ≤ grade 1 hyperglycemia within two weeks as described in […]
• Any Grade 4 non-hematologic toxicity of any duration
• Any non-hematologic toxicity Grade ≥ 3 EXCEPT for:
− Grade 3 diarrhea, nausea, or vomiting of ≤ 3 days duration (with optimal medical […]
− Grade 3 rash of the acneiform, pustular or maculopapular type which resolves to […]
level with resumption of study drug at the same dose (with optimal medical […]
− Grade 3 fatigue which resolves to Grade ≤ 2 within 7 days of study drug […]
the same dose (with optimal medical management).
• Hematological toxicities as follows:
− Grade 4 neutropenia lasting > 7 days
− Grade 4 thrombocytopenia lasting > 7 days, Grade ≥ 3 thrombocytopenia with clinically significant bleeding
• Any AE, Grade ≥ 2 not specified or exempt above, unless clearly determined to be unrelated to the drug, necessitating dose-level reduction during Cycle 1.
Isolated laboratory changes without associated clinical signs or symptoms (eg, hypomagnesemia, hypermagnesemia, hypoalbuminemia, hypophosphatemia, lymphocyte count increased or decreased) may not be included in this definition. These findings will be discussed and reviewed […]
7.2.7. Criteria for Dose Escalation in the Next Cohort of Subjects
During Part A, the dose escalation criteria are described in Section 7.2.2.
7.2.8. Definition of Stopping Criteria
During Part A, the dose escalation stopping rules are in Section 7.2.2.
7.2.9. Permitted Study Drug Adjustments
Dose reductions are permitted in any cycle, including Cycle 1.
• Dose reductions that occur in Cycle 1 during dose escalation will constitute DLT as […]

[1] = part C, cycles 1 and 2, fasted state (n = 39)
[2] = part C, cycles 1 and 2, fed state (n = 35)

## Cn1cc(-c2cc(S(C)(=O)=O)ccc2OCC2CC2)c2ccccc2c1=O [trotabresib]
Part B DLBCL, grade 4
  TRAE: Hypertension: 0%
  TRAE: Hyponatremia: 0%
  TRAE: Hypophosphatemia: 0%
  TRAE: Nausea: 0%
  TRAE: Neutropenia: 13.04%
  TRAE: Platelet count decreased: 0%
  TRAE: Stomatitis: 0%
  TRAE: Thrombocytopenia: 60.87%
  TRAE: Vomiting: 0%
Part B R/R DLBCL (N = 23)
  grade 3/4 TRAE anemia: 26%
  grade 3/4 TRAE neutropenia: 26%
  grade 3/4 TRAE thrombocytopenia: 78%
  patients who died due to TEAEs not considered related to study treatment: 9%
  patients with any-grade TRAEs: 100%
  patients with grade 3/4 TRAEs: 91%
  patients with serious TRAEs: 30%
Part B R/R DLBCL population
  further grade 3 and 4 TRAEs reported in one patient each: Grade 3 abdominal infection, blood bilirubin increased, pneumonia and grade 4 blood creatinine increased, febrile neutropenia, leukopenia, and lymphopenia
Part C (N = 41)
  TEAE leading to death, not considered related: one
  grade 3/4 TRAE thrombocytopenia: 17%
  patients with any-grade TRAEs: 98%
  patients with grade 3/4 TRAEs: 59%
Part C population
  further grade 3 TRAEs reported in one patient each: Grade 3 gamma-glutamyl transferase increased, hyperamylasemia, and syncope
Part C, any grade
  TRAE: ALT increased: 21.95%
  TRAE: Anemia: 12.2%
  TRAE: Any TRAE: 97.56%
  TRAE: Asthenia: 41.46%
  TRAE: Decreased appetite: 34.15%
  TRAE: Dehydration: 0%
  TRAE: Dermatitis acneiform: 17.07%
  TRAE: Diarrhoea: 60.98%
  TRAE: Dysgeusia: 53.66%
  TRAE: Fatigue: 26.83%
  TRAE: Hyperglycemia: 19.51%
  TRAE: Hypertension: 4.88%
  TRAE: Hyponatremia: 2.44%
  TRAE: Hypophosphatemia: 4.88%
  TRAE: Nausea: 60.98%
  TRAE: Neutropenia: 12.2%
  TRAE: Platelet count decreased: 0%
  TRAE: Stomatitis: 56.1%
  TRAE: Thrombocytopenia: 63.41%
  TRAE: Vomiting: 43.9%
[1]
  patients with any-grade TRAEs: 95%
  patients with grade 3/4 TRAEs: 33%
[2]
  patients with any-grade TRAEs: 91%
  patients with grade 3/4 TRAEs: 20%
Part C, grade 3
  TRAE: ALT increased: 2.44%
  TRAE: Anemia: 0%
  TRAE: Any TRAE: 56.1%
  TRAE: Asthenia: 7.32%
  TRAE: Decreased appetite: 0%
  TRAE: Dehydration: 0%
  TRAE: Dermatitis acneiform: 0%
  TRAE: Diarrhoea: 4.88%
  TRAE: Dysgeusia: 0%
  TRAE: Fatigue: 7.32%
  TRAE: Hyperglycemia: 4.88%
  TRAE: Hypertension: 2.44%
  TRAE: Hyponatremia: 2.44%
  TRAE: Hypophosphatemia: 4.88%
  TRAE: Nausea: 4.88%
  TRAE: Neutropenia: 4.88%
  TRAE: Platelet count decreased: 0%
  TRAE: Stomatitis: 4.88%
  TRAE: Thrombocytopenia: 14.63%
  TRAE: Vomiting: 2.44%
Part C, grade 4
  TRAE: ALT increased: 0%
  TRAE: Anemia: 0%
  TRAE: Any TRAE: 2.44%
  TRAE: Asthenia: 0%
  TRAE: Decreased appetite: 0%
  TRAE: Dehydration: 0%
  TRAE: Dermatitis acneiform: 0%
  TRAE: Diarrhoea: 0%
  TRAE: Dysgeusia: 0%
  TRAE: Fatigue: 0%
  TRAE: Hyperglycemia: 0%
  TRAE: Hypertension: 0%
  TRAE: Hyponatremia: 0%
  TRAE: Hypophosphatemia: 0%
  TRAE: Nausea: 0%
  TRAE: Neutropenia: 0%
  TRAE: Platelet count decreased: 0%
  TRAE: Stomatitis: 0%
  TRAE: Thrombocytopenia: 2.44%
  TRAE: Vomiting: 0%
Whole study
  grade 5 TRAEs: No grade 5 TRAEs were reported
